# Assays:
# [1] = target: T1, fibrinogen in human plasma (Homo sapiens, UniProt P02671+P02675+P02679); assay: Inactivation of fibrinogen by vancomycin or chloramine-T (FIFTA read-out); type: biochemical
# T1 construct: 200 μl of 256% of norm active fibrinogen in P-Pool; from tissue; host or cells: pooled citrated human patient plasma (P-Pool / Fbgen-Pool)
# T1 sequence (P02671 20-629 isoform P02671-2 limits assumed): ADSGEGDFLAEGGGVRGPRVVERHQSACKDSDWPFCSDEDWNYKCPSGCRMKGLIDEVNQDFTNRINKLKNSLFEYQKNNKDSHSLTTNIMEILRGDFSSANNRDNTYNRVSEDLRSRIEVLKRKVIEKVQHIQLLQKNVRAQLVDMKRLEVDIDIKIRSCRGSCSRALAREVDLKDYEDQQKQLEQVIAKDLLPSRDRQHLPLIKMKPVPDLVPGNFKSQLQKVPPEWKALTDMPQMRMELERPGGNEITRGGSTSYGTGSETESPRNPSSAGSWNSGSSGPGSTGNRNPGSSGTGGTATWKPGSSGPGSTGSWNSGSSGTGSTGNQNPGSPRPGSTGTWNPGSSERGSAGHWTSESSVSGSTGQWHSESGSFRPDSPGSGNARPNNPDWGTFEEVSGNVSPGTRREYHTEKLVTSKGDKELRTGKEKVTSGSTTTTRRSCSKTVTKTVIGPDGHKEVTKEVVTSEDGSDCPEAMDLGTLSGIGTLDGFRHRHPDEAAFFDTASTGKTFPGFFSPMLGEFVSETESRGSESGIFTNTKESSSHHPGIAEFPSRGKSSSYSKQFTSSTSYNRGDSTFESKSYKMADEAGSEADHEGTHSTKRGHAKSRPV
# T1 sequence (P02675 31-491): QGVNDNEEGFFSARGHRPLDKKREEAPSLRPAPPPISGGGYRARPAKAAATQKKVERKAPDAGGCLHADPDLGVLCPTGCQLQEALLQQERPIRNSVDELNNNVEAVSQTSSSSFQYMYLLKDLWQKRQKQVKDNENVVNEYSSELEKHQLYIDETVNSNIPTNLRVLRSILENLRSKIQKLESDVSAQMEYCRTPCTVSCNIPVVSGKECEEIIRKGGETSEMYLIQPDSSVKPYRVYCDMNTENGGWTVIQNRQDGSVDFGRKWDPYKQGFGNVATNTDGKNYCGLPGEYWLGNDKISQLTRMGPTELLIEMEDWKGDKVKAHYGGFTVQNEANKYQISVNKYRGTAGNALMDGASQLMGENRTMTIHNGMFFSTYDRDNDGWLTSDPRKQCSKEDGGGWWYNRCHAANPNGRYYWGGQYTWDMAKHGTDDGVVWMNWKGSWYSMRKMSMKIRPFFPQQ
# T1 sequence (P02679 27-437 isoform P02679-2 limits assumed): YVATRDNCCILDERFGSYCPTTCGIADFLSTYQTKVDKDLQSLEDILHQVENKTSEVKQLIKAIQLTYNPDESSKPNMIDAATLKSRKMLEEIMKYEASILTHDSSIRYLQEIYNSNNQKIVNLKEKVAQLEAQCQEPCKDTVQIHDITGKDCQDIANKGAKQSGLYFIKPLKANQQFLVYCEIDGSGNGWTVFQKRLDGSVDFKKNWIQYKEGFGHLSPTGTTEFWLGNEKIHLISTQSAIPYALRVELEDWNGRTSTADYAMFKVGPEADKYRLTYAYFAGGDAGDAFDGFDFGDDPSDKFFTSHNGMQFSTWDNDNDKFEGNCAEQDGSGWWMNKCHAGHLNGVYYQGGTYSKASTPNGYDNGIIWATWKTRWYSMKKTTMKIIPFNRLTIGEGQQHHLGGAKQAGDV
# Description: 200 μl of 256% of norm active fibrinogen in P-Pool were incubated with 25 μl 0-100 mM vancomycin or 0-100 mM chloramine-T® in aqua dest. for 15 min (37° C.). 50 μl samples of these reaction mixtures were withdrawn and incubated with 100 μl 200 mIU/ml thrombin, 400 μg/ml Polybrene®, 6% BSA-PBS. The results were standardized by simultaneous analysis of 144% of norm active fibrinogen in P-Pool.
# [2] = system: β2 fraction (fibrinogen) of plasma; assay: Electrophoresis of plasma that had been incubated with vancomycin; type: biochemical
# Description: 950 μl P-Pool were incubated with 50 μl 0-200 mM (0-10 mM final conc.) vancomycin for 5 min (RT). Then electrophoreses of the samples and of the solubilized precipitate of 2.10. were performed and the total protein concentrations in the treated samples were determined.
structure (smiles),measurement,setting,value
CN[C@H](CC(C)C)C(=O)N[C@H]1C(=O)N[C@@H](CC(N)=O)C(=O)N[C@H]2C(=O)N[C@H]3C(=O)N[C@H](C(=O)N[C@H](C(=O)O)c4cc(O)cc(O)c4-c4cc3ccc4O)[C@H](O)c3ccc(c(Cl)c3)Oc3cc2cc(c3O[C@@H]2O[C@H](CO)[C@@H](O)[C@H](O)[C@H]2O[C@H]2C[C@](C)(N)[C@H](O)[C@H](C)O2)Oc2ccc(cc2Cl)[C@H]1O [vancomycin],IC50,[1],~1000 µM
same,β2 fraction,[2]; 0.29 mM vancomycin,10.6%
same,β2 fraction,[2]; 0.44 mM vancomycin,10.4%
same,β2 fraction,[2]; 0.66 mM vancomycin,8.0%
same,β2 fraction,[2]; 0.99 mM vancomycin,6.4%
same,β2 fraction,[2]; 1.48 mM vancomycin,5.2%
same,β2 fraction,[2]; 2.22 mM vancomycin,5.5%
same,β2 fraction,[2]; 5 mM vancomycin,0%
same,β2 fraction,[2]; 10 mM vancomycin,0%
